This is an account of results in ChEMBL document CHEMBL3045680, “Synthesis and Herbicidal Activity of 4-Thiazolone Derivatives and Their Effect on Plant Secretory Pathway” (J Pestic Sci, 2003).

Active and inactive are the calls of the source. The rule behind the calls is not given here.

One data set concerns Echinochloa oryzicola. Briefly: Induction of plant secretory pathway perturbations in Echinochloa oryzicola seedlings root tips area exposed to 10 uM compound 3 days after sowing assessed as induction of curved cell wall membrane-cell wall interface measured after 8 hr days post compound treatment by electron microscopy.
Settings: not given
In kind it is functional, organism-based.
Regarding `CC1COc2ccccc2N1C1=NC(=O)C(C)(CCCl)S1` (stereo unspecified), the outcome was Active.

The test system of the next data set is Echinochloa oryzicola. Nature of the data set: Induction of plant secretory pathway perturbations in Echinochloa oryzicola seedlings exposed to 10 uM compound 3 days after sowing assessed as induction of morphological changes in root tip golgi apparatus measured after 4 hr days post compound treatment by electron microscopy. It counts as functional, organism-based.
Settings: not given
With `CC1COc2ccccc2N1C1=NC(=O)C(C)(CCCl)S1` (stereo unspecified), the outcome was Active.

The test system of another data set is Echinochloa oryzicola. Nature of the data set: Induction of plant secretory pathway perturbations in Echinochloa oryzicola seedlings exposed to 10 uM compound 3 days after sowing assessed as induction of cytological changes in root apical tip area measured after 4 to 8 hr days post compound treatment by electron microscopy. It counts as functional, organism-based.
Settings: not given
As for `CC1COc2ccccc2N1C1=NC(=O)C(C)(CCCl)S1` (stereo unspecified), the outcome was Active.

In another data set the test system is Echinochloa oryzicola. Nature of the data set: Induction of plant secretory pathway perturbations in Echinochloa oryzicola seedlings root tips area exposed to 10 uM compound 3 days after sowing assessed as induction of low electron dense area at membrane-cell wall interface measured after 4 hr days post compound treatment by electron microscopy. It counts as functional, organism-based.
Settings: not given
Take `CC1COc2ccccc2N1C1=NC(=O)C(C)(CCCl)S1` (stereo unspecified): the outcome was Active.

For the next data set, the system named is Echinochloa oryzicola. Briefly: Induction of plant secretory pathway perturbations in Echinochloa oryzicola seedlings root tips area exposed to 10 uM compound 3 days after sowing assessed as induction of vesicles accumulation at plasma membrane-cell wall interface measured after 4 hr days post compound treatment by electron microscopy. It counts as functional, organism-based.
Settings: not given
Regarding `CC1COc2ccccc2N1C1=NC(=O)C(C)(CCCl)S1` (stereo unspecified), the outcome was Active.

A further data set has as its system Schoenoplectiella juncoides. Nature of the data set: Herbicidal activity against Schoenoplectiella juncoides assessed as compound application rate causing complete weed control measured 30 days after compound treatment under green house conditions. In kind it is functional.
Settings: not given
Turning to `CC1COc2ccccc2N1C1=NC(=O)C(C)(CCCl)S1` (stereo unspecified), the Activity stood at 0.25 KgAi/ha.

The next data set deals with Echinochloa oryzicola. Briefly: Post-emergence herbicidal activity against Echinochloa oryzicola assessed as weed killing at 0.5 kg ai/ha measured 30 days after compound treatment under green house conditions. In kind it is functional.
Settings: not given
As for `CCC1(CCl)SC(N2c3ccccc3OCC2C)=NC1=O` (stereo unspecified), the Activity is 50%.

`CCC1(C)SC(N2c3ccccc3OCC2C)=NC1=O` (stereo unspecified): the Activity was determined as 60%.

On to `CC1COc2ccccc2N1C1=NC(=O)C(C)(CCCl)S1` (stereo unspecified), for which the Activity stood at 70%.

As to `CCC1(CCCl)SC(N2c3ccccc3OCC2C)=NC1=O` (stereo unspecified), the Activity amounted to 60%.

`CCC1(CC)SC(N2c3ccccc3OCC2C)=NC1=O` (stereo unspecified): the Activity is 70%.

Turning to `CC1COc2ccccc2N1C1=NC(=O)C(C)(C)S1` (stereo unspecified), the Activity was 60%.

`CCN(CC)C(=O)n1cnc(S(=O)(=O)c2c(C)cc(C)cc2C)n1` [CAFENSTROLE]: the Activity was found to be 80%.

The subject of another data set is Echinochloa oryzicola. Nature of the data set: Induction of plant secretory pathway perturbations in Echinochloa oryzicola seedlings root tips area exposed to 10 uM compound 3 days after sowing assessed as induction of obscuring of cell wall measured after 4 hr days post compound treatment by electron microscopy.
Settings: not given
It counts as functional, organism-based.
In the case of `CC1COc2ccccc2N1C1=NC(=O)C(C)(CCCl)S1` (stereo unspecified), the result was Active.

Another data set concerns Schoenoplectiella juncoides. Nature of the data set: Pre-emergence herbicidal activity against Schoenoplectiella juncoides assessed as weed killing at 2 kg ai/ha measured 30 days after compound treatment under green house conditions.
Settings: not given
It counts as functional.
Turning to `CN(Cc1ccccc1)C1=NC(=O)C(C)(C)S1`, the Activity came to 40%.

In the case of `CC1(C)SC(N2CCOc3ccccc32)=NC1=O`, the Activity worked out at 80%.

Regarding `CC1(C)SC(Nc2ccccc2)=NC1=O`, the Activity came out at 80%.

In the case of `CC1COc2ccccc2N1C1=NC(=O)C(C)(C)S1` (stereo unspecified), the Activity is on record as 100%.

In the next data set the test system is Echinochloa oryzicola. Nature of the data set: Induction of plant secretory pathway perturbations in Echinochloa oryzicola seedlings exposed to 10 uM compound 3 days after sowing assessed as induction of accumulation of dense vesicles around root tip golgi apparatus measured after 4 hr days post compound treatment by electron microscopy. In kind it is functional, organism-based.
Settings: not given
On to `CC1COc2ccccc2N1C1=NC(=O)C(C)(CCCl)S1` (stereo unspecified), for which the outcome was Active.

The subject of a further data set is Echinochloa oryzicola. Nature of the data set: Inhibition of shoot growth of Echinochloa oryzicola seedlings exposed to 10 uM compound immediately after sowing measured after 2 days post compound treatment. It counts as functional, organism-based.
Settings: not given
On to `CC1COc2ccccc2N1C1=NC(=O)C(C)(CCCl)S1` (stereo unspecified), for which the “growth inhibition (GI)” value is “Active”.

The next data set has as its system Oryza sativa. Nature of the data set: Post-emergence phytotoxicity against Oryza sativa (rice) plants exposed to compound applied on surface of water 7 days after transplantation assessed as plant killing at 0.5 kg ai/ha measured 3 weeks after compound treatment under green house conditions. In kind it is organism-based. The conditions noted are these: other, 504 h.
Consider `CCC1(CCl)SC(N2c3ccccc3OCC2C)=NC1=O` (stereo unspecified), for which the Activity worked out at 20%.

For `CCC1(C)SC(N2c3ccccc3OCC2C)=NC1=O` (stereo unspecified), the Activity worked out at 0%.

`CC1COc2ccccc2N1C1=NC(=O)C(C)(CCCl)S1` (stereo unspecified): the Activity was 0%.

With `CCC1(CCCl)SC(N2c3ccccc3OCC2C)=NC1=O` (stereo unspecified), the Activity amounted to 0%.

As for `CCC1(CC)SC(N2c3ccccc3OCC2C)=NC1=O` (stereo unspecified), the Activity came out at 0%.

Turning to `CC1COc2ccccc2N1C1=NC(=O)C(C)(C)S1` (stereo unspecified), the Activity came to 20%.

With `CCN(CC)C(=O)n1cnc(S(=O)(=O)c2c(C)cc(C)cc2C)n1` [CAFENSTROLE], the Activity is on record as 20%.

The test system of a further data set is Echinochloa oryzicola. Nature of the data set: Inhibition of root growth of Echinochloa oryzicola seedlings exposed to 10 uM compound immediately after sowing measured after 3 days post compound treatment. In kind it is functional, organism-based.
Settings: not given
Turning to `CC1COc2ccccc2N1C1=NC(=O)C(C)(CCCl)S1` (stereo unspecified), the “growth inhibition (GI)” value was “Active”.

The next data set relates to Pontederia vaginalis. Nature of the data set: Herbicidal activity against Monochoria vaginalis assessed as compound application rate causing complete weed control measured 30 days after compound treatment under green house conditions.
Settings: not given
In kind it is functional.
Turning to `CC1COc2ccccc2N1C1=NC(=O)C(C)(CCCl)S1` (stereo unspecified), the Activity stood at 0.25 KgAi/ha.

The next data set deals with Cyperus serotinus. Nature of the data set: Herbicidal activity against Cyperus serotinus assessed as compound application rate causing complete weed control measured 30 days after compound treatment under green house conditions. It counts as functional.
Settings: not given
In the case of `CC1COc2ccccc2N1C1=NC(=O)C(C)(CCCl)S1` (stereo unspecified), the Activity is 0.25 KgAi/ha.

The next data set deals with Echinochloa oryzicola. Briefly: Induction of necrotic symptoms in root tip of Echinochloa oryzicola seedlings exposed to 10 uM compound measured after 24 to 72 hr days post compound treatment. In kind it is functional, organism-based.
Settings: not given
Regarding `CC1COc2ccccc2N1C1=NC(=O)C(C)(CCCl)S1` (stereo unspecified), the result was Active.

The next data set deals with Lindernia procumbens. Briefly: Herbicidal activity against Lindernia procumbens assessed as compound application rate causing complete weed control measured 30 days after compound treatment under green house conditions. It counts as functional.
Settings: not given
Regarding `CC1COc2ccccc2N1C1=NC(=O)C(C)(CCCl)S1` (stereo unspecified), the Activity is 0.25 KgAi/ha.

In a further data set the test system is Echinochloa oryzicola. Nature of the data set: Inhibition of shoot growth of Echinochloa oryzicola seedlings exposed to 10 uM compound 3 days after sowing measured after 24 to 72 hr days post compound treatment.
Settings: not given
In kind it is functional, organism-based.
Turning to `CC1COc2ccccc2N1C1=NC(=O)C(C)(CCCl)S1` (stereo unspecified), the “growth inhibition (GI)” value was “inactive”.

The test system of the next data set is Echinochloa oryzicola. Nature of the data set: Induction of plant secretory pathway perturbations in Echinochloa oryzicola seedlings root tips area exposed to 10 uM compound 3 days after sowing assessed as induction of endoplasmic reticulum swellings measured after 4 hr days post compound treatment by electron microscopy. It counts as functional, organism-based.
Settings: not given
Turning to `CC1COc2ccccc2N1C1=NC(=O)C(C)(CCCl)S1` (stereo unspecified), the outcome was Active.

The subject of another data set is Schoenoplectiella juncoides. Nature of the data set: Post-emergence herbicidal activity against Schoenoplectiella juncoides assessed as weed killing at 2 kg ai/ha measured 30 days after compound treatment under green house conditions.
Settings: not given
It counts as functional.
`CN(Cc1ccccc1)C1=NC(=O)C(C)(C)S1`: the Activity worked out at 0%.

Turning to `CC1(C)SC(N2CCOc3ccccc32)=NC1=O`, the Activity is recorded as 40%.

Turning to `CC1(C)SC(Nc2ccccc2)=NC1=O`, the Activity is listed as 60%.

As for `CC1COc2ccccc2N1C1=NC(=O)C(C)(C)S1` (stereo unspecified), the Activity was found to be 80%.

Another data set concerns Echinochloa oryzicola. Nature of the data set: Herbicidal activity against Echinochloa oryzicola assessed as compound application rate causing complete weed control measured 30 days after compound treatment under green house conditions. In kind it is functional.
Settings: not given
In the case of `CC1COc2ccccc2N1C1=NC(=O)C(C)(CCCl)S1` (stereo unspecified), the Activity came to 0.25 KgAi/ha.

A further data set concerns Echinochloa oryzicola. Nature of the data set: Induction of plant secretory pathway perturbations in Echinochloa oryzicola seedlings root tips area exposed to 10 uM compound 3 days after sowing assessed as induction of curved cell wall membrane-cell wall interface measured after 4 hr days post compound treatment by electron microscopy.
Settings: not given
In kind it is functional, organism-based.
Regarding `CC1COc2ccccc2N1C1=NC(=O)C(C)(CCCl)S1` (stereo unspecified), the outcome was Active.

The next data set relates to Echinochloa oryzicola. Nature of the data set: Induction of plant secretory pathway perturbations in Echinochloa oryzicola seedlings root tips area exposed to 10 uM compound 3 days after sowing assessed as induction of vesicles accumulation at plasma membrane-cell wall interface measured after 8 hr days post compound treatment by electron microscopy.
Settings: not given
It counts as functional, organism-based.
Regarding `CC1COc2ccccc2N1C1=NC(=O)C(C)(CCCl)S1` (stereo unspecified), the result was Active.

Another data set has as its system Echinochloa oryzicola. Briefly: Inhibition of root growth of Echinochloa oryzicola seedlings exposed to 10 uM compound 3 days after sowing measured after 24 to 72 hr days post compound treatment. It counts as functional, organism-based.
Settings: not given
As to `CC1COc2ccccc2N1C1=NC(=O)C(C)(CCCl)S1` (stereo unspecified), the “growth inhibition (GI)” value is “Active”.

The test system of a further data set is Rotala indica. Nature of the data set: Herbicidal activity against Rotala indica assessed as compound application rate causing complete weed control measured 30 days after compound treatment under green house conditions. In kind it is functional.
Settings: not given
`CC1COc2ccccc2N1C1=NC(=O)C(C)(CCCl)S1` (stereo unspecified): the Activity came out at 0.25 KgAi/ha.

The test system of another data set is Echinochloa oryzicola. Nature of the data set: Pre-emergence herbicidal activity against Echinochloa oryzicola assessed as weed killing at 2 kg ai/ha measured 30 days after compound treatment under green house conditions. In kind it is functional.
Settings: not given
On to `CN(Cc1ccccc1)C1=NC(=O)C(C)(C)S1`, for which the Activity worked out at 20%.

For the compound `CC1(C)SC(N2CCOc3ccccc32)=NC1=O`, the Activity stood at 90%.

Consider `CC1(C)SC(Nc2ccccc2)=NC1=O`, for which the Activity was found to be 80%.

Turning to `CC1COc2ccccc2N1C1=NC(=O)C(C)(C)S1` (stereo unspecified), the Activity was determined as 100%.

A further data set concerns Echinochloa oryzicola. Briefly: Post-emergence herbicidal activity against Echinochloa oryzicola assessed as weed killing at 2 kg ai/ha measured 30 days after compound treatment under green house conditions.
Settings: not given
In kind it is functional.
For the compound `CN(Cc1ccccc1)C1=NC(=O)C(C)(C)S1`, the Activity amounted to 0%.

On to `CCC1(CCl)SC(N2c3ccccc3OCC2C)=NC1=O` (stereo unspecified), for which the Activity is recorded as 100%.

Consider `CC1(C)SC(N2CCOc3ccccc32)=NC1=O`, for which the Activity was found to be 90%.

For `CCC1(C)SC(N2c3ccccc3OCC2C)=NC1=O` (stereo unspecified), the Activity was determined as 100%.

`CC1(C)SC(Nc2ccccc2)=NC1=O`: the Activity is reported as 60%.

For `CC1COc2ccccc2N1C1=NC(=O)C(C)(CCCl)S1` (stereo unspecified), the Activity came out at 80%.

Consider `CCC1(CCCl)SC(N2c3ccccc3OCC2C)=NC1=O` (stereo unspecified), for which the Activity is reported as 100%.

On to `CCC1(CC)SC(N2c3ccccc3OCC2C)=NC1=O` (stereo unspecified), for which the Activity came out at 100%.

Turning to `CC1COc2ccccc2N1C1=NC(=O)C(C)(C)S1` (stereo unspecified), the Activity is given as 100%.
